In ChEMBL document CHEMBL2385040, “Synthesis and antiproliferative activity of 4-substituted-piperazine-1-carbodithioate derivatives of 2,4-diaminoquinazoline” (Eur J Med Chem, 2013):
The source made the active and inactive calls. The rule behind the calls is not given here.

Assays:
HCT-116 [1] = test: Antiproliferative activity against human HCT116 cells after 72 hrs by MTT assay; format: functional, cell-based; conditions: HCT-116, 72 h
Dihydrofolate reductase = target: T1, Dihydrofolate reductase (Homo sapiens, UniProt P00374); test: Inhibition of human dihydrofolate reductase by spectrophotometric analysis
T1 sequence (P00374 whole entry): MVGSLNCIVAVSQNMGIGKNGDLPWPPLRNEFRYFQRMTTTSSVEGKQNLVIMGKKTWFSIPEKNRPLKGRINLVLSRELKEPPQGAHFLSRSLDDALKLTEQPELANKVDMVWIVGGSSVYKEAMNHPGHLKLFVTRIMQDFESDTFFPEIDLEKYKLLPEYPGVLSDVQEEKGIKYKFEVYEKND

HeLa [2] = test: Antiproliferative activity against human HeLa cells after 72 hrs by MTT assay; format: functional, cell-based
HT-29 [3] = test: cells; conditions: Homo sapiens, HT-29, 72 h
[4] = target: T2, Dihydrofolate reductase (Homo sapiens) (UniProt P00374); test: Inhibition of human dihydrofolate reductase at 500 nM by spectrophotometric analysis relative to control
T2 sequence (whole entry): T1 sequence (P00374 whole entry)

[5] = target: Thymidylate synthase (Homo sapiens) (UniProt P04818); test: Inhibition of human recombinant His-tagged thymidylate synthase assessed as N5,N10-methylenetetrahydrofolate oxidation to dihydrofolate at 50 uM after 20 mins by UV spectrophotometric analysis relative to control
MCF7 [6] = test: cells; conditions: Homo sapiens, MCF7, 72 h
HCT-116 [7] = test: Cell cycle arrest in human HCT116 cells assessed as accumulation at S phase at IC50 after 24 hrs by propidium iodide staining-based FACS flow cytometric analysis (reference value: 25.39%); format: functional
HCT-116 [8] = test: Induction of DNA damage in human HCT116 cells assessed as G2/M checkpoint activation measured as reduction in mitotic index after 2 hrs by immunofluorescence assay; format: functional
HCT-116 [9] = test: Cell cycle arrest in human HCT116 cells assessed as accumulation at G2/M phase at IC50 after 24 hrs by propidium iodide staining-based FACS flow cytometric analysis (reference value: 11.54%); format: functional
HCT-116 [10] = test: Cell cycle arrest in human HCT116 cells assessed as accumulation at G0/G1 phase at IC50 after 24 hrs by propidium iodide staining-based FACS flow cytometric analysis (reference value: 63.07%); format: functional
A549 [11] = test: cells; conditions: Homo sapiens, A549, 72 h
Description: Antiproliferative activity against human A549 cells after 72 hrs by MTT assay

HCT-116 [12] = test: Induction of DNA damage in human HCT116 cells assessed as formation of marker ser-139 phosphorylated H2AX nuclear foci after 2 hrs by immunofluorescence assay; format: functional, cell-based
HeLa [13] = test: Antiproliferative activity against human HeLa cells at 20 uM after 72 hrs by MTT assay relative to control; format: functional, cell-based
HCT-116 [14] = test: Antiproliferative activity against human HCT116 cells at 20 uM after 72 hrs by MTT assay relative to control; format: functional, cell-based; conditions: HCT-116, 72 h
HT-29 [15] = test: Antiproliferative activity against human HT-29 cells at 20 uM after 72 hrs by MTT assay relative to control; format: functional, cell-based; conditions: HT-29, 72 h
MCF7 [16] = test: Antiproliferative activity against human MCF7 cells at 20 uM after 72 hrs by MTT assay relative to control; format: functional, cell-based; conditions: MCF7, 72 h
[17] = target: Thymidylate synthase (Homo sapiens) (UniProt P04818); conditions: 1 uM
Description: Inhibition of human recombinant His-tagged thymidylate synthase assessed as N5,N10-methylenetetrahydrofolate oxidation to dihydrofolate at 1 uM after 20 mins by UV spectrophotometric analysis relative to control

A549 [18] = test: Antiproliferative activity against human A549 cells at 20 uM after 72 hrs by MTT assay relative to control; format: functional, cell-based; conditions: A549, 72 h

Sequence of Thymidylate synthase (Homo sapiens) (P04818 2-313 limits assumed): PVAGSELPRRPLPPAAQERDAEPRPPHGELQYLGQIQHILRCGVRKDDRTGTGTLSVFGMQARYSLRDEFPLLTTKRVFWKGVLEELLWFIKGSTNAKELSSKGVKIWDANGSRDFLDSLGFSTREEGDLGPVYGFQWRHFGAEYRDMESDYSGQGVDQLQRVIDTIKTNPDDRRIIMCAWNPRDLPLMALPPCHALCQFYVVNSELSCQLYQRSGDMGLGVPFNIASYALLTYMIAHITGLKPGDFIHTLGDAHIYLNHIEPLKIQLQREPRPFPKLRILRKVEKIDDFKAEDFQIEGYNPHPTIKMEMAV

| SMILES | IC50 (HCT-116 [1]) [µM] | IC50 (HeLa [2]) [µM] | IC50 (HT-29 [3]) [µM] | IC50 (MCF7 [6]) [µM] | IC50 (A549 [11]) [µM] | further results |
| --- | --- | --- | --- | --- | --- | --- |
| Nc1nc(N)c2cc(CSC(=S)N3CCN(c4ccc(F)cc4)CC3)ccc2n1 | 3.27 | 1.84 | 2.05 | 1.92 | 2.04 | IC50 (Dihydrofolate reductase): 2110 nM; inhibition [4]: 35%; inhibition [5]: 19.9%; Activity (HCT-116 [7]): 39.22%; Ratio (HCT-116 [8]): 0.45; Activity (HCT-116 [9]): 14.15%; Activity (HCT-116 [10]): 46.63%; Activity (HCT-116 [12]): Active |
| CN1CCN(C(=S)SCc2ccc3nc(N)nc(N)c3c2)CC1 |  |  |  |  | 9.2 | IC50 (HeLa [13]): > 20 µM; IC50 (HCT-116 [14]): > 20 µM; IC50 (HT-29 [15]): > 20 µM; IC50 (MCF7 [16]): > 20 µM |
| Nc1nc(N)c2cc(CSC(=S)N3CCN(c4ccccc4F)CC3)ccc2n1 |  | 6.66 | 5.42 | 4.84 | 6.46 |  |
| Nc1nc(N)c2cc(CSC(=S)N3CCN(C4CCCCC4)CC3)ccc2n1 | 8.4 | 5.96 | 4.05 | 6.8 | 4.71 |  |
| Cc1nc(=O)c2cc(CN(C)c3ccc(C(=O)N[C@@H](CCC(=O)O)C(=O)O)s3)ccc2[nH]1 |  |  |  |  |  | inhibition [17]: 94.2% |
| COc1ccc(N2CCN(C(=S)SCc3ccc4nc(N)nc(N)c4c3)CC2)cc1 | 2.27 | 1.66 | 1.77 | 1.58 | 1.59 | IC50 (Dihydrofolate reductase): 5960 nM; inhibition [4]: 24%; inhibition [5]: 15.2%; Activity (HCT-116 [7]): 33.34%; Ratio (HCT-116 [8]): 0.76; Activity (HCT-116 [9]): 14.29%; Activity (HCT-116 [10]): 52.36%; Activity (HCT-116 [12]): Active |
| Nc1nc(N)c2cc(CSC(=S)N3CCN(c4ncccn4)CC3)ccc2n1 | 5.84 | 4.36 | 4.72 | 4.19 | 4.01 |  |
| Nc1nc(N)c2cc(CSC(=S)N3CCN(c4ccccc4[N+](=O)[O-])CC3)ccc2n1 | 5.52 | 4.88 | 4.31 | 4.35 | 4.36 |  |
| Cc1ccccc1N1CCN(C(=S)SCc2ccc3nc(N)nc(N)c3c2)CC1 | 11.8 |  | 2.95 | 4.23 | 3.92 |  |
| O=c1[nH]cc(F)c(=O)[nH]1 [FLUOROURACIL] | 5.53 | 43.7 | 24.5 | 32.2 | 3.52 | Activity (HCT-116 [7]): 47.75%; Activity (HCT-116 [9]): 6.81%; Activity (HCT-116 [10]): 45.44%; Activity (HCT-116 [12]): inactive |
| Nc1nc(N)c2cc(CSC(=S)N3CCN(c4ccccn4)CC3)ccc2n1 | 5.96 | 5.09 | 6.2 | 5.11 | 3.96 |  |
| Cc1ccc(N2CCN(C(=S)SCc3ccc4nc(N)nc(N)c4c3)CC2)c(C)c1 | 4.07 | 3.19 | 2.97 | 3.12 | 3 |  |
| Nc1nc(N)c2cc(CSC(=S)N3CCN(Cc4ccccc4)CC3)ccc2n1 | 4.91 | 8.35 | 8.49 | 8.46 | 3.31 |  |
| CC(=O)c1ccc(N2CCN(C(=S)SCc3ccc4nc(N)nc(N)c4c3)CC2)cc1 | 8.26 | 2.04 | 2.28 | 2.49 | 2.55 |  |
| Nc1nc(N)c2cc(CSC(=S)N3CCN(c4ccc([N+](=O)[O-])cc4)CC3)ccc2n1 | 4.68 | 1.66 | 3.32 | 1.47 | 1.91 | IC50 (Dihydrofolate reductase): 1610 nM; inhibition [4]: 29%; inhibition [5]: 14.1%; Activity (HCT-116 [7]): 39.46%; Ratio (HCT-116 [8]): 0.67; Activity (HCT-116 [9]): 15.8%; Activity (HCT-116 [10]): 44.74%; Activity (HCT-116 [12]): Active |
| Nc1nc(N)c2cc(CSC(=S)N3CCN(c4ccccc4)CC3)ccc2n1 | 4.12 | 2.84 | 2.76 | 2.95 | 2.97 |  |
| Cc1ccc(N2CCN(C(=S)SCc3ccc4nc(N)nc(N)c4c3)CC2)cc1 | 5.51 | 2.13 | 3.02 | 2.48 | 2.19 |  |
| Nc1nc(N)c2cc(CSC(=S)N3CCN(c4ccc(Cl)c(Cl)c4)CC3)ccc2n1 | 6.68 | 3.06 | 3.48 | 2.37 | 2.94 |  |
| Nc1nc(N)c2cc(CSC(=S)N3CCN(c4ccc(O)cc4)CC3)ccc2n1 | 5.98 | 5.18 |  | 5.09 | 4.21 | IC50 (HT-29 [15]): > 20 µM |
| Nc1nc(N)c2cc(CSC(=S)N3CCN(c4ccc(F)cc4F)CC3)ccc2n1 | 5.15 | 3.8 | 5.02 | 3.67 | 5.12 |  |
| Nc1nc(N)c2cc(CSC(=S)N3CCN(c4ccc(C(F)(F)F)cc4)CC3)ccc2n1 |  |  |  | 7.4 |  | IC50 (HeLa [13]): > 20 µM; IC50 (HCT-116 [14]): > 20 µM; IC50 (A549 [18]): > 20 µM; IC50 (HT-29 [15]): > 20 µM |
| Nc1nc(N)c2cc(CSC(=S)N3CCN(c4ccccc4Cl)CC3)ccc2n1 | 5.49 | 4.05 | 3.9 | 3.19 | 3.61 |  |
| CC[C@@]1(O)C(=O)OCc2c1cc1n(c2=O)Cc2cc3ccccc3nc2-1 [CAMPTOTHECIN] |  |  |  |  |  | Ratio (HCT-116 [8]): 0.64 |
| Nc1nc(N)c2cc(CSC(=S)N3CCN(c4ccc(Cl)cc4)CC3)ccc2n1 | 7.38 | 6.99 | 7.48 | 4.88 | 5.21 |  |
